Where two headings read alike, the source gives them in different places.
Columns and labels:
in vitro [1] = assay: in vitro; design: species or system HB2, CCD841; settings: human, hek293 cells
BSA = molecular target: T1, BSA (Bos taurus, UniProt P02769); design: Intact protein LC/MS covalent labelling, fragments in pools of five, 200 uM each, 4 °C; settings: 24 h, 4 °C, pool of five; 200 µM; covalent
T1 construct: gene ALB

OTUB2 (OTUB2A) = molecular target: T2, OTUB2 (OTUB2A) (Homo sapiens, UniProt Q96DC9); design: Intact protein LC/MS covalent labelling, fragments in pools of five, 200 uM each, 4 °C; settings: 24 h, 4 °C, pool of five; 200 µM; covalent
T2 construct: full length residues 1-234, E. coli BL21(DE3)-R3, His tag removed by TEV, construct 27312 Da
T2 sequence (Q96DC9 1-234): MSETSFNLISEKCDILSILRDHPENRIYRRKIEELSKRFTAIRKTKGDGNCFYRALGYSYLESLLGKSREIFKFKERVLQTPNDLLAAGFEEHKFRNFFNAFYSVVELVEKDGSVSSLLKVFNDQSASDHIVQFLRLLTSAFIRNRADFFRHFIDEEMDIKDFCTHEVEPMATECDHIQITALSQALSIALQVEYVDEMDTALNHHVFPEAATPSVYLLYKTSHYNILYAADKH

NUDT7 = molecular target: T3, NUDT7 (Homo sapiens, UniProt P0C024); design: Intact protein LC/MS covalent labelling, fragments in pools of five, 200 uM each, 4 °C; settings: 24 h, 4 °C, pool of five; 200 µM; covalent
T3 construct: residues 14-235, E. coli, pNIC28-Bsa4, N-terminal His6 tag removed by TEV, construct 26672 Da

PCAF = molecular target: T4, PCAF (Homo sapiens, UniProt Q92831); design: Intact protein LC/MS covalent labelling, fragments in pools of five, 200 uM each, 4 °C; settings: 24 h, 4 °C, pool of five; 200 µM; covalent
T4 construct: gene KAT2B

in vitro [2] = assay: in vitro; design: species or system CCD841, HEK293; settings: human, hb2 cells, read-out: HB-2 Cells Viability (%)
in vitro [3] = assay: in vitro; design: species or system HB2, HEK293; settings: human, ccd841 cells

T3 sequence (P0C024 14-235): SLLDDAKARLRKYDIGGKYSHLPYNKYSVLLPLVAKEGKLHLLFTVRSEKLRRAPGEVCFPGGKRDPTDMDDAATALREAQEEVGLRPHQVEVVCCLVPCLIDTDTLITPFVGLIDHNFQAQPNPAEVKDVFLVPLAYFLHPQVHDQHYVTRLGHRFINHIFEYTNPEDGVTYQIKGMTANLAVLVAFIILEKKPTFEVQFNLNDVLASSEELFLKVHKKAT
T4 sequence (Q92831 whole entry, the tested form may be a part): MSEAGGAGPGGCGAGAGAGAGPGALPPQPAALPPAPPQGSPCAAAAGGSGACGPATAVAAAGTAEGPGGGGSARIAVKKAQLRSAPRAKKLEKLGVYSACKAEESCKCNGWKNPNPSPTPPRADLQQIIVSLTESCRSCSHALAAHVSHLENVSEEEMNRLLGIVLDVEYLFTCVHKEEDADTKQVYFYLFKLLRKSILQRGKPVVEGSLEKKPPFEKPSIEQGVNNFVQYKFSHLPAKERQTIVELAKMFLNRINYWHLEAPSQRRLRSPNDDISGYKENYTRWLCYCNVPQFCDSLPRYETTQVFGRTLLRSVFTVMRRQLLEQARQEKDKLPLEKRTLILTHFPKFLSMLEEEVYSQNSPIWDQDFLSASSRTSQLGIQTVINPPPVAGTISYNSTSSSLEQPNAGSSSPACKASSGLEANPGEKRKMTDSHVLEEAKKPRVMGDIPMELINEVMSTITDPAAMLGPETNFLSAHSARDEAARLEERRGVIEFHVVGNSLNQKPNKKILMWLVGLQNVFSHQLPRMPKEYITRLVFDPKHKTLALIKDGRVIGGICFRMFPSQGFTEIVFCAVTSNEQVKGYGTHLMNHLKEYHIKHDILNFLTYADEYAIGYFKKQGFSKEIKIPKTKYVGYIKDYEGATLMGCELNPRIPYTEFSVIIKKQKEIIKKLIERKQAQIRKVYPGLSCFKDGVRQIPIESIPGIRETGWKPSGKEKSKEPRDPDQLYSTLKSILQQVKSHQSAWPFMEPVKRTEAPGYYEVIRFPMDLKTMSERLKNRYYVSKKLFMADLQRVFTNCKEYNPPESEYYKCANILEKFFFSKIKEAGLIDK
T1 sequence (P02769 whole entry, the tested form may be a part): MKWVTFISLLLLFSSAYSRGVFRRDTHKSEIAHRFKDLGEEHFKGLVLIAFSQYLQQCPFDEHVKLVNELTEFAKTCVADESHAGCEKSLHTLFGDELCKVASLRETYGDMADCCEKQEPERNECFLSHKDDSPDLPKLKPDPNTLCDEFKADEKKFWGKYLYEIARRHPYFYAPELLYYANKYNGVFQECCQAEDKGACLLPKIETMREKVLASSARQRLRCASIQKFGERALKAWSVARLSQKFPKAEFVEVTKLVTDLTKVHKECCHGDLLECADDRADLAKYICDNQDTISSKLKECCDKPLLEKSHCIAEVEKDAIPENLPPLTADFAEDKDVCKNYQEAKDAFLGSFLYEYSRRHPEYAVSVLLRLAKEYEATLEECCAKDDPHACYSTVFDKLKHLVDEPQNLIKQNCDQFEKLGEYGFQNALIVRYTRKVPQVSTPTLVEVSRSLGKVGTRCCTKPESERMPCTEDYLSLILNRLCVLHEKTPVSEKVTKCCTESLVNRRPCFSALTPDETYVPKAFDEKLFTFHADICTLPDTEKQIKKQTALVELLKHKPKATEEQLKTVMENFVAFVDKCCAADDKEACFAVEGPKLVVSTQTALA

| SMILES | BSA (BSA) | OTUB2 (OTUB2 (OTUB2A)) | NUDT7 (NUDT7) | PCAF (PCAF) | viability at 48 h, 10 µM (in vitro [1]) [%] | viability at 48 h, 10 µM (in vitro [2]) [%] | viability at 48 h, 10 µM (in vitro [3]) [%] |
| --- | --- | --- | --- | --- | --- | --- | --- |
| O=C(CCl)NNC(=O)C1COc2ccccc2O1 (stereo not shown) [PCM-0102384] | 0 | 0.27 | 0 | 0 | 90.7 | 86.6 | 70.3 |
| O=C(CCl)NCC1CCCO1 (stereo not shown) [PCM-0102356] | 0 | 0.05 | 0 | 0 | 102 | 91.4 | 104 |
| COc1ccccc1NC(=O)CCl [PCM-0102236] | 0 | 0.28 | 0 | 0 | 58.4 | 71 | 79 |
| Cc1nn(-c2ccccc2)c(C)c1NC(=O)CCl [PCM-0102501] | 0 | 0.09 | 0.09 | 0 | 62.2 | 83.2 | 68.3 |
| Cc1cccc(C(=O)O)c1NC(=O)CCl [PCM-0102167] | 0 | 0 | 0 | 0 | 104 | 101 | 102 |
| O=C(CCl)Nc1ccccc1I [PCM-0102509] | 0.1 | 0 | 0 | 0 | 99.4 | 95.5 | 91.1 |
| O=C(CCl)Nc1ccc(F)c(F)c1 [PCM-0102328] | 0.24 | 0.31 | 0 | 0 | 1.4 | 14.3 | 30.4 |
| CCC1(C)NC(=O)N(NC(=O)CCl)C1=O (stereo not shown) [PCM-0102205] | 0 | 0 | 0 | 0 | 88 | 96.9 | 85.3 |
| Cc1cc(S(N)(=O)=O)cc(NC(=O)CCl)c1C [PCM-0102165] | 0 | 0.12 | 0.09 | 0 | 8.3 | 34.5 | 61.3 |
| CN(C)S(=O)(=O)c1ccc2c(c1)CCCN2C(=O)CCl [PCM-0102285] | 0 | 0 | 0 | 0 | 2.2 | 21.6 | 53.5 |
| CC(C)CNC(=O)NC(=O)CCl [PCM-0102502] | 0 | 0 | 0 | 0 | 52.7 | 78 | 80.7 |
| Cc1cc(NC(=O)CCl)no1 [PCM-0102500] | 0 | 0.35 | 0 | 0 | 60.3 | 66.8 | 73.3 |
| O=C(CCl)NNC(=O)c1cc2c(s1)CCCC2 [PCM-0102142] | 0 | 1 | 0.09 | 0 | 52.6 | 49 | 62.6 |
| O=C(CCl)Nc1ncc(Br)s1 [PCM-0102326] | 0 | 0.06 | 0 | 0 | 23 | 38 | 47.7 |
| CC(=O)N1CCN(C(=O)CCl)CC1 [PCM-0102535] | 0.2 | 0 | 0.06 | 0 | 37.6 | 85.7 | 82.8 |
| C=CC(=O)Nc1ccc(Cl)c(C#N)c1 [PCM-0102453] | 0 | 0 | 0 | 0 | 59.5 | 85.7 | 86.4 |
| C=CC(=O)N1CCN(c2nc3ccccc3o2)C(C)C1 (stereo not shown) [PCM-0102441] | 0 | 0 | 0 | 0 | 88.3 | 96.7 | 99.4 |

More lines, main results first:

| BSA (BSA) | OTUB2 (OTUB2 (OTUB2A)) | NUDT7 (NUDT7) | PCAF (PCAF) | SMILES | viability at 48 h, 10 µM (in vitro [1]) [%] | viability at 48 h, 10 µM (in vitro [2]) [%] | viability at 48 h, 10 µM (in vitro [3]) [%] |
| --- | --- | --- | --- | --- | --- | --- | --- |
| 0 | 0 | 0.4 | 0 | O=C(CCl)N1CCCc2cccc(F)c21 [PCM-0103071] | 25.1 | 62.4 | 65.9 |
| 0 | 0.09 | 0 | 0 | N#CSc1ccc(NC(=O)CCl)c(F)c1 [PCM-0102548] | 55.2 | 19.2 | 26.5 |
| 0 | 0 | 0.39 | 0 | O=C(CCl)N1N=C(c2ccco2)CC1c1ccsc1 (stereo not shown) [PCM-0102659] | 3.5 | 15.3 | 15.6 |
| 0 | 0 | 0 | 0 | C=CC(=O)N1CCN(C(=O)c2ccc(Br)o2)CC1 [PCM-0102804] | 84.7 | 93.5 | 102 |
| 0 | 0 | 0 | 0 | CC(NC(=O)CCl)C(=O)N1CCCCC1 (stereo not shown) [PCM-0102598] | 98.7 | 101 | 99.9 |
| 0.2 | 0.27 | 0 | 0 | O=C(CCl)NNC(=O)c1ccco1 [PCM-0102985] | 100 | 96.9 | 89.7 |
| 0 | 0.06 | 0 | 0 | COC(=O)CNC(=O)CCl [PCM-0102906] | 112 | 87.7 | 86.7 |
| 0 | 0 | 0 | 0 | C=CC(=O)N1CCc2c(ncn(CC)c2=O)C1 [PCM-0103074] | 100 | 101 | 115 |
| 0 | 0 | 0.12 | 0 | CC1CCCCC1N(C)C(=O)CCl (stereo not shown) [PCM-0103026] | 31.2 | 18.3 | 57 |
| 0 | 0 | 0.3 | 0 | CN(C(=O)CCl)C1CCCc2ccccc21 (stereo not shown) [PCM-0102703] | 5.8 | 6.6 | 25.8 |
| 0 | 0 | 0 | 0 | CC1CN(C(=O)CCl)CCO1 (stereo not shown) [PCM-0102830] | 85.9 | 101 | 99.1 |
